# Test results reported in patent publication US6790836B2, “Process for preparing indolopyrrolocarbazole derivatives, intermediates therefor, and preparation process of the intermediates” (Banyu Pharmaceutical Co., Ltd., priority 2000, dated 2004).
# pEC50: −log10 of the molar value.
# Molecular target: T1, topoisomerase I (Homo sapiens, UniProt P11387)
# T1 sequence (P11387 1-765): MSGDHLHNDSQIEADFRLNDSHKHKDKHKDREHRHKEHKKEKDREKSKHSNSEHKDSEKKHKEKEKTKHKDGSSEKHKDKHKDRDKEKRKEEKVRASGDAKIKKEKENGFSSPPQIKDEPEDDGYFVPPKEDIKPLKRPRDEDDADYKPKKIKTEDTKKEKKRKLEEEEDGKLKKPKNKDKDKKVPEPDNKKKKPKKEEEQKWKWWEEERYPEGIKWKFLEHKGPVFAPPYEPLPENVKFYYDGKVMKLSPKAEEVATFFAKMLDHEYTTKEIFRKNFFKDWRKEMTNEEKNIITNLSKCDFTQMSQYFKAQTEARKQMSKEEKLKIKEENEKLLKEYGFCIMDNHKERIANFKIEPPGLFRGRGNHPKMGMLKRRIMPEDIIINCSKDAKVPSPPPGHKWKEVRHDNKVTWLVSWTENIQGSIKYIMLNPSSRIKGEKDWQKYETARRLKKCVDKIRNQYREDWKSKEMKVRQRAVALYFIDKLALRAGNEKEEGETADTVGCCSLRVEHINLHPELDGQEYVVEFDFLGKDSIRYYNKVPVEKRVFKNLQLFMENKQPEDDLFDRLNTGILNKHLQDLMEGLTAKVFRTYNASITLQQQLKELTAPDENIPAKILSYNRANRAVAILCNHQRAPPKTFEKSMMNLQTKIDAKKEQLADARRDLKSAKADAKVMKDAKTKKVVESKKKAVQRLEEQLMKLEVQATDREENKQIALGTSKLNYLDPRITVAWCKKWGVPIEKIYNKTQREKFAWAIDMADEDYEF
# Assay: Topoisomerase I-inhibiting activity
# Assay type: biochemical
# Details: concentration of a compound needed to inhibit topoisomerase I activity by 50%
# Protocol: Topoisomerase I-inhibiting activity was assayed by the method described in Yoshinari, T et al., Cancer Research, vol. 55, page 1310 (1995).
# In the table, EC50 means the concentration of a compound needed to inhibit topoisomerase I activity by 50%.
row,Structure (SMILES),pEC50
1,"O=C1OC(=O)c2c1c1c3ccc(OCc4ccccc4)cc3[nH]c1c1c2c2ccc(OCc3ccccc3)cc2n1C1OC(COCc2ccccc2)C(OCc2ccccc2)C(OCc2ccccc2)C1OCc1ccccc1 [Example 1, 12,13-dihydro-2,10-dibenzyloxy-13-(β-D-2,3,4,6-tetra-O-benzylglucopyranosyl)-5H-indolo[2,3-a]carbazole-5,6-dicarboxylic anhydride]",< 3.00
2,CN1C(=O)c2c(c3c4ccc(O)cc4n([C@@H]4O[C@H](CO)[C@@H](O)[C@H](O)[C@H]4O)c3c3[nH]c4cc(O)ccc4c23)C1=O [Compound [b]],6.17
3,O=C1OC(=O)c2c1c1c3ccc(O)cc3[nH]c1c1c2c2ccc(O)cc2n1C1OC(CO)C(O)C(O)C1O (stereo not shown) [Compound [c]],6.74
4,"O=C1c2c(c3c4ccc(OCc5ccccc5)cc4n(C4OC(COCc5ccccc5)C(OCc5ccccc5)C(OCc5ccccc5)C4OCc4ccccc4)c3c3[nH]c4cc(OCc5ccccc5)ccc4c23)C(=O)N1NC(CO)CO [Example 2, 12,13-dihydro-2,10-dibenzyloxy-6-N-(1-hydroxymethyl-2-hydroxyethylamino)-13-(β-D-2,3,4,6-tetra-O-benzylglucopyranosyl)-5H-indolo[2.3-a]pyrrolo[3,4-c]-carbazole-5,7(6H)-dione]",< 3.00
